The text below walks through data of patent publication US6978572B1, “Method and device for attracting insects” (Colorado State University Research Foundation, priority 1998, dated 2005).

The subject of assay [1] is plant-parasitic nematodes. The following applies: cited from earlier work.
For assay [2], the system named is wireworm larvae. The conditions noted are these: Doane et al. (1975); cited from earlier work.
In assay [3] the test system is western corn root worm larvae. The following applies: literature reports; cited from earlier work.
For assay [4], the system named is western corn root worm larvae.
Assay [5] deals with Reticulitermes virginicus. The assay is described as follows: T-tube choice-test behavioral bioassay with CO2. It counts as in vivo. The following applies: versus ambient air. On the procedure:
(§1) Behavioral bioassay apparatus: The choice-test bioassay apparatus was constructed from a glass T-tube (5 mm inside diameter, 5 mm stem, with each branch 4.5 cm long). Each branch of the ‘T’ was bent downward (2.5 cm from the junction of the ‘T’) at a 45° angle to form a pitfall trap. A 5 mm NMR cap (cat. no. 100-0050, Drummond Scientific, Broomall, Pa.) with a 1 mm pinhole in it was firmly pushed over the end of each bent branch. A 25 cm length of Teflon tubing (0.8 mm inside diameter) was inserted 3 mm into the hole in each NMR cap and the other end of the tubing was connected to a 35 ml polyethylene syringe (cat. no. 106-0490, Sherwood Medical, St. Louis, Mo.). The two 35-ml syringes were connected to a syringe pump which was adjusted to provide an airflow of 1 ml per min into each choice arm of the bioassay apparatus. Mixtures of CO2 and ambient air were tested to determine the termite response to a range of CO2 concentrations. A 35-ml syringe was rinsed with distilled water and partially filled (5 ml) with ambient air. Different amounts of 100% CO2 were obtained with a smaller glass syringe from a tank and injected into the 35-ml syringe. Ambient air was then drawn into the 35-ml syringe to fill it and mix the gases by turbulence as the syringe was loaded. A 2nd 35-ml polyethylene syringe was filled with ambient air for a control. Measurements with GC-MS-SIM confirmed that the CO2 concentrations reached equilibrium after 15 min. The CO2 concentration of the syringes was determined by using GC-MS-SIM analysis (see below) before each bioassay. Bioassays were conducted with both Reticulitermes tibialis and Reticulitermes flavipes for 1, 2, 5, 10, 20, 50 and 500 mmol per mol concentrations of CO2 and with Reticulitermes virginicus for 5, 10, 20, and 50 mmol per mol. Procedure: For bioassays, termite workers were collected from plastic tubs by using a camel's hair brush and were placed into a holding container constructed from a 3 cm length of Teflon tubing (8 mm inside diameter). The container was plugged at one end with a NMR cap with two holes (1 mm) drilled in the bottom. A second NMR cap with a 4 mm hole was inserted backwards into the other end of the Teflon tube. The end of the NMR cap was sealed with a small square of cellophane held in place with a plastic tube (a piece of plastic soda straw) that fit snugly over the open end. Termites (5 workers) were placed in the container and the top was sealed. The container was placed horizontally and left undisturbed for 20 min. The T-tube apparatus was assembled and clamped horizontally on top of a block of foam rubber (12 by 12 cm) with a wire bent into a U-shape. The syringe pump was turned on, and after 3 min of pumping, the cellophane seal was removed from the holding container and the entrance to the holding container was gently connected to the central arm of the T-tube, allowing termites to crawl out and enter the apparatus. Bioassays were conducted for 15 min, after which the number of termites in each pitfall was recorded. CO2 measurements: Gas chromatography-mass spectrometry in selected ion monitoring mode (GC-MS-SIM) at m/e 44 was used to determine CO2 concentrations. A Hewlett-Packard Series II 5890 gas chromatograph interfaced with a Hewlett-Packard 5971 mass selective detector was used with a methyl silicone capillary column (30 m×0.32 mm inside diameter, RSL-150, Alltech, Deerfield, Ill.). […]

Assay [6] deals with Reticulitermes flavipes. Briefly: T-tube choice-test behavioral bioassay with CO2. It is filed as in vivo. The conditions noted are these: versus ambient air. On the procedure: as §1
For assay [7], the system named is Reticulitermes tibialis. The assay is described as follows: T-tube choice-test behavioral bioassay with CO2. It is filed as in vivo. On the procedure:
as §1

Structures are written as SMILES. Where “and” joins values, the source holds several entries; their conditions need not be identical. Equal values may be shown once. Entries after “also recorded” stand apart in the source; their conditions may differ. Read-outs that look alike come from different tables or passages of the source.

For the compound `O=C=O` [CO2, Carbon dioxide], the entries for the “CO2 threshold for nematode response” value in assay [1] (higher baseline concentration (1.0%)) and in assay [1] (low baseline levels of CO2 (0.1%)) were 0.05% and 0.01%, respectively. Moreover, the “Smallest CO2 difference to which larvae respond” value in assay [2] is 0.02%. Also, in assay [3], the “Attraction of larvae reported in earlier publications” value was “highly attracted to CO2”. Besides, the “Selective response, attraction to higher CO2 concentration” value in assay [4] (0.125 mmol/mol difference at higher base concentrations) was “no difference in attraction was observed in any of the tests at higher concentrations”; in assay [4] (1 versus 1.125 mmol/mol (actual 1.06±0.05 versus 1.18±0.05)) it was “significantly greater attraction was observed to 1.125 mmol/mol than to 1 mmol/mol”; in assay [4] (1 versus 1.25 mmol/mol) it was “more attracted to the higher CO2 concentration”; in assay [4] (1 versus 1.50 mmol/mol), “Significantly more larvae were attracted”; in assay [4] (2 versus 2.25 mmol/mol) it was “more attracted to the higher CO2 concentration”; in assay [4] (2 versus 2.50 mmol/mol), “Significantly more larvae were attracted”. The “Selective response, attraction to higher CO2 concentration” value was “no difference in attraction was observed” in assay [4] (5 versus 5.25 mmol/mol); “Significantly more larvae were attracted” in assay [4] (5 versus 5.50 mmol/mol); “no difference in attraction was observed” in assay [4] (10 versus 10.25 mmol/mol); “Significantly more larvae were attracted” in assay [4] (10 versus 10.50 mmol/mol); “no difference in attraction was observed” in assay [4] (20 versus 20.25 mmol/mol); “no difference in attraction was observed” in assay [4] (20 versus 20.50 mmol/mol). Moreover, the “Larvae attracted to CO2 side versus control side” value in assay [4] (10 mmol/mol CO2 (10.43±0.18) versus ambient air, syringe sources) was “significantly more western corn root worm larvae (P<0.05) were attracted to the side containing 10 mmol/mol CO2”. In addition, the “Smallest difference between the 2 CO2 choices still attracting larvae to the higher concentration” value in assay [4] (base level 1 mmol/mol) stood at 0.125 mmol/mol. Besides, the “CO2 excess over control at which larvae were 1st attracted” value in assay [4] (control contained 1, 2, 5, 10, and 20 mmol/mol CO2) amounted to 12.5%. Moreover, in assay [4] (control side ambient air 0.99±0.02 mmol/mol), the “Lowest CO2 concentration significantly attractive to neonate larvae” value stood at 1.125±0.04 mmol/mol. In assay [4] (dose-response, syringe sources), the “Highest concentration of CO2 to which larvae were attracted” value was 100 mmol/mol and 85.6±1.20 mmol/mol. In addition, in assay [4] (dose-response, syringe sources), the “Most attractive (optimal) concentrations of CO2” value was 2.51-4.20 mmol/mol and 2.51±0.13 mmol/mol and 4.20±0.21 mmol/mol. The “Lowest concentration of CO2 attractive to the larvae” value in assay [4] (dose-response, syringe sources, control 0.91±0.03) amounted to 1.34±0.05 mmol/mol. The “CO2 concentration of best attraction” value in assay [5] turned out to be 10 mmol per mol; in assay [6], 10 mmol per mol; in assay [7] (versus ambient air) it was 5 mmol per mol. Also, the “Termites choosing CO2 side versus control side” value in assay [7] (5 mmol/mol CO2 versus ambient air) is listed as “significantly greater than the number that moved to the control side; also recorded: significantly more often; also recorded: Significantly more termites (p<0.05) were attracted to the side containing 5 mmol/mol CO2 than to the control side”. For the same compound, in assay [7] (versus ambient air, 5 workers, 15 min), the “CO2 concentrations to which termites were attracted” value is 10 mmol per mol and 20 mmol per mol.

Take `ClCCl` [dichloromethane, reference compound]: the “Attraction of larvae reported in earlier publications” value in assay [3] is recorded as “attractive to Diabrotica larvae”.
